In patent US5298494A, “Monosaccharides having anti-proliferation and anti-inflammatory activity, compositions and uses thereof” (Greenwich Pharmaceuticals Incorporated, priority 1993, dated 1994):

Key:
[1] = tested on: T cell proliferation in mouse spleen cell mixed lymphocyte cultures; test: Mixed Lymphocyte Reaction (MLR) assay; format: cell-based, mouse (Balb/c responder, C57B1/6 stimulator); settings: for inhibition at 3 µM / inhibition at 10 µM / inhibition at 30 µM / inhibition at 100 µM / inhibition at 300 µM: Mus musculus, Lymphocyte, read-out: % Change From Control, MLR
Method in brief: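 Balb/c responder spleen cells (2.5×10^5) co-cultured with mitomycin C-treated C57Bl/6 stimulators (5×10^5) for 5 days at 37 C with compound dilutions of 3–300 uM or DMSO. Proliferation read by MTT (OD 570-650 nm). Allogeneic minus syngeneic means were expressed as % change from vehicle control.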

[2] = tested on: Interleukin 1 (IL-1) production by peritoneal macrophages; test: IL-1 Assay: production of interleukin-1 by peritoneal macrophages (thymocyte bioassay); format: cell-based, mouse (C57B1/6); parameters: inhibition: dose or concentration left out as unconfirmed; settings: for inhibition at 0.001 µg/mL / inhibition at 0.01 µg/mL / inhibition at 0.1 µg/mL / inhibition at 2.5 µg/mL / inhibition at 10 µg/mL / inhibition at 25 µg/mL / inhibition at 100 µg/mL / inhibition: Mus musculus, Peritoneal macrophage, read-out: % effect on IL-1 production (thymidine uptake by thymocytes)
Text: Interleukin 1 (IL-1) is a potent immunomodulatory cytokine that has a broad range of pro-inflammatory activities. IL-1 is known to be produced by activated accessory cells such as macrophages. Accessory cell production of IL-1 results in the activation and proliferation of T and B lymphocytes. Therefore, by inhibiting macrophage activation and production of IL-1, the activation and proliferation of the cellular effectors of inflammation can be modulated. Compounds of the invention were screened for inhibitory activity in a classical IL-1 assay. Six to 8 week old male C57B1/6 mice were purchased from Harlan Sprague Dawley. Peritoneal macrophages were elicited by the administration to mice of a single intraperitoneal injection of 0.2 ml of complete Freund's adjuvant. After 48 hours, elicited macrophages were removed from the mice by lavage with the use of Hank's balanced salt solution. […] To the macrophage cultures were added various doses of the compounds of the invention and 10 ug/ml of the macrophage activator lipopolysaccharide (to stimulate IL-1 production). Control cultures consisted of macrophages, lipopolysaccharide and culture medium containing various doses of DMSO only. […] The amount of IL-1 produced in the individual wells was determined in a bioassay for IL-1. This involved the removal of thymuses from mice less than 8 weeks of age. Thymocytes were isolated by passing each thymus through a stainless steel mesh screen. […] After 18 hours cells were harvested and radioactive incorporation (as a measure of cell proliferation) was quantitated in a liquid scintillation counter. The students t test was used to determine the significance of the difference between experimental and control values.

| Structure (SMILES) | Mean O.D. Allogenic ([1]; 3 um) [O.D.] | Mean O.D. Syngeneic ([1]; 3 um) [O.D.] | Mean O.D. Allogenic ([1]; 10 um) [O.D.] | Mean O.D. Syngeneic ([1]; 10 um) [O.D.] | ^3 H-Thymidine uptake by thymocytes ([2]; 0.001 ug/ml) | ^3 H-Thymidine uptake by thymocytes ([2]; 0.01 ug/ml) | ^3 H-Thymidine uptake by thymocytes ([2]; 0.1 ug/ml) | ^3 H-Thymidine uptake by thymocytes ([2]; 1 ug/ml) | ^3 H-Thymidine uptake by thymocytes ([2]; 2.5 ug/ml) | ^3 H-Thymidine uptake by thymocytes ([2]; 10 ug/ml) | ^3 H-Thymidine uptake by thymocytes ([2]; 25 ug/ml) | ^3 H-Thymidine uptake by thymocytes ([2]; 100 ug/ml) | inhibition at 0.001 µg/mL ([2]; 0.001 ug/ml) [%] | inhibition at 0.01 µg/mL ([2]; 0.01 ug/ml) [%] | inhibition at 0.1 µg/mL ([2]; 0.1 ug/ml) [%] | inhibition at 2.5 µg/mL ([2]; 2.5 ug/ml) [%] | inhibition at 10 µg/mL ([2]; 10 ug/ml) [%] | inhibition at 25 µg/mL ([2]; 25 ug/ml) [%] | inhibition at 100 µg/mL ([2]; 100 ug/ml) [%] | inhibition [2] [%] | also measured |
| --- | --- | --- | --- | --- | --- | --- | --- | --- | --- | --- | --- | --- | --- | --- | --- | --- | --- | --- | --- | --- | --- |
| CC1(C)OC2OC(C(O)COCCCc3ccccc3)C(O)C2O1 [IIIe, 1,2-O-Isopropylidene-6-O-3'-(phenylpropyl)-α-D-glucofuranose] | 0.174 | 0.052 | 0.122 | 0.081 | 7,276 ± 399 cpm | 8,908 ± 773 cpm | 8,049 ± 282 cpm | 4,279 ± 691 cpm | 3,676 ± 506 cpm | 2,586 ± 553 cpm | 1,840 ± 301 cpm | 1,129 ± 299 cpm | -11 | -8 | -4 | 56 | 66 | 76 | 83 | -45 | Mean O.D. Allogenic ([1]; 30 um): 0.084 O.D.; Mean O.D. Syngeneic ([1]; 30 um): 0.066 O.D.; Mean O.D. Allogenic ([1]; 100 um): 0.034 O.D.; Mean O.D. Syngeneic ([1]; 100 um): 0.024 O.D.; Mean O.D. Allogenic ([1]; 300 um): 0.009 O.D.; Mean O.D. Syngeneic ([1]; 300 um): 0.010 O.D.; inhibition at 3 µM ([1]; 3 um): 19%; inhibition at 10 µM ([1]; 10 um): 73%; inhibition at 30 µM ([1]; 30 um): 88%; inhibition at 100 µM ([1]; 100 um): 93%; inhibition at 300 µM ([1]; 300 um): 101% |
| CN1CCCC1CCNC[C@H]1OC(C)(C)O[C@@H]2[C@H]3OC(C)(C)O[C@H]3O[C@@H]21 (stereo partly shown) [IIIi] | 0.128 | 0.090 | 0.180 | 0.102 | 11,367 ± 906 cpm | 9,902 ± 888 cpm | 10,740 ± 724 cpm | 9,561 ± 113 cpm | 5,382 ± 45 cpm | 5,169 ± 870 cpm | 5,052 ± 140 cpm | 2,328 ± 278 cpm | -39 | -20 | -39 | 35 | 33 | 34 | 65 | -22 | effect on MLR in words [1]: strong non dose dependent inhibition of T lymphocyte proliferation; Mean O.D. Allogenic ([1]; 30 um): 0.165 O.D.; Mean O.D. Syngeneic ([1]; 30 um): 0.078 O.D.; Mean O.D. Allogenic ([1]; 100 um): 0.095 O.D.; Mean O.D. Syngeneic ([1]; 100 um): 0.066 O.D.; Mean O.D. Allogenic ([1]; 300 um): 0.019 O.D.; Mean O.D. Syngeneic ([1]; 300 um): 0.030 O.D.; inhibition at 3 µM ([1]; 3 um): 15%; inhibition at 10 µM ([1]; 10 um): 48%; inhibition at 30 µM ([1]; 30 um): 42%; inhibition at 100 µM ([1]; 100 um): 81%; inhibition at 300 µM ([1]; 300 um): 107% |
| CCCCCCCOCCCO[C@@H]1[C@H]2OC(C)(C)O[C@H]2O[C@@H]1[C@H](O)CO [IIg] |  |  |  |  | 8,823 ± 771 cpm | 7,873 ± 379 cpm | 8,790 ± 533 cpm | 7,307 ± 680 cpm | 7,229 ± 471 cpm | 4,854 ± 471 cpm | 3,265 ± 141 cpm | 934 ± 43 cpm | -8 | 4 | -14 | 13 | 37 | 57 | 80 | 6 | % Change From Control, MLR ([1]; Table X, 3 ugm): -61%; % Change From Control, MLR ([1]; Table X, 10 ugm): -15%; Mean O.D. Allogenic ([1]; Table X, 10 ugm): 0.197 O.D.; Mean O.D. Syngeneic ([1]; Table X, 10 ugm): 0.070 O.D.; % Change From Control, MLR ([1]; Table X, 30 ugm): -36%; Mean O.D. Allogenic ([1]; Table X, 30 ugm): 0.171 O.D.; Mean O.D. Syngeneic ([1]; Table X, 30 ugm): 0.075 O.D.; % Change From Control, MLR ([1]; Table X, 100 ugm): -101%; % Change From Control, MLR ([1]; Table X, 300 ugm): -97%; strong non-dose dependent inhibition in MLR ([1]; several concentrations): greater than -50 % of control |
| CCCCCCCOC[C@H]1O[C@@]2(OC)COC(C)(C)O[C@H]2[C@@H]1O [Ia, methyl 1,3-O-isopropylidene-6-O-heptyl-α-D-fructofuranoside] | 0.375 | 0.193 | 0.361 | 0.175 | 10,550 cpm | 10,960 cpm | 10,265 ± 227 cpm | 10,777 ± 1,903 cpm | 8,250 ± 705 cpm | 4,970 ± 410 cpm | 3,210 ± 149 cpm | 2,215 ± 643 cpm | 3 | -1 | 8 | 28 | 51 | 63 | 75 | 2 | Mean O.D. Allogenic ([1]; 30 um): 0.334 O.D.; Mean O.D. Syngeneic ([1]; 30 um): 0.167 O.D.; Mean O.D. Allogenic ([1]; 100 um): 0.429 O.D.; Mean O.D. Syngeneic ([1]; 100 um): 0.192 O.D.; Mean O.D. Allogenic ([1]; 300 um): 0.162 O.D.; Mean O.D. Syngeneic ([1]; 300 um): 0.107 O.D.; inhibition at 3 µM ([1]; 3 um): 5%; inhibition at 10 µM ([1]; 10 um): 3%; inhibition at 30 µM ([1]; 30 um): 13%; inhibition at 100 µM ([1]; 100 um): -23%; inhibition at 300 µM ([1]; 300 um): 71% |
| CCCCC/C=C/COC[C@H]1O[C@@]2(OC)COC(C)(C)O[C@H]2[C@@H]1OC/C=C/CCCCC [Ie, methyl 1,3-O-isopropylidene-4,6-di-O-(trans,2-octenyl)-α-D-fructofuranoside] | 0.341 | 0.133 | 0.318 | 0.130 | 12,713 ± 866 cpm | 12,040 cpm | 11,047 ± 702 cpm | 9,710 ± 1,323 cpm | 7,000 ± 686 cpm | 6,100 ± 775 cpm | 5,300 ± 1,405 cpm | 4,300 ± 1,100 cpm | -17 | -11 | 1 | 30 | 40 | 40 | 51 | 12 | Mean O.D. Allogenic ([1]; 30 um): 0.266 O.D.; Mean O.D. Syngeneic ([1]; 30 um): 0.178 O.D.; Mean O.D. Allogenic ([1]; 100 um): 0.216 O.D.; Mean O.D. Syngeneic ([1]; 100 um): 0.146 O.D.; Mean O.D. Allogenic ([1]; 300 um): 0.152 O.D.; Mean O.D. Syngeneic ([1]; 300 um): 0.082 O.D.; inhibition at 3 µM ([1]; 3 um): -8%; inhibition at 10 µM ([1]; 10 um): 2%; inhibition at 30 µM ([1]; 30 um): 54%; inhibition at 100 µM ([1]; 100 um): 64%; inhibition at 300 µM ([1]; 300 um): 64% |
